Data taken from publication PMC12677699, “Utilizing Proteolytic‐Resistant Nano‐Short Peptide Based on Naphthyl Tail‐Anchored to Combat Bacterial Infections” (Advanced Science, 2025).
≈ marks a conversion by molar mass, not a printed value. Non-standard residues stand in square brackets, D forms with d. Residues, ends and D or L forms follow the SMILES beside them. ξ: configuration not given here. ξAhp(2) = CCCCCC(N)C(=O)O

What was measured:
S. aureus ATCC 29213 [1] = experiment: Intracellular ATP determination; assay type: cell-based, Staphylococcus aureus; settings: 16 × 10^−6 M, S. aureus ATCC 29213, 1 h, 37 °C; n = 3
Experimental: The intracellular ATP levels of E. coli ATCC 25922 and S. aureus ATCC 29213 after nano‐short peptides treatment were detected using an Enhanced ATP Assay Kit.^[ [59] ^] Logarithmic growth stage E. coli ATCC 25922 and S. aureus ATCC 29213 bacterial solutions were diluted to OD600 = 0.4 in MHB liquid medium. Then, the bacterial dilutions were co‐incubated with different concentrations of nano‐short peptides at 37 °C for 1 h. After incubation, the bacterial dilutions were centrifuged (12 000 rpm, 5 min, 4 °C) to pellet the cells. The resulting bacterial pellets were processed according to the steps in the kit. Finally, the chemiluminescence was detected by a microplate reader.

S. epidermidis 12228 = assay type: cell-based, Staphylococcus epidermidis
Experimental: (§1) The MIC values of the nano‐short peptides were determined according to standard protocols.^[ [63] ^] Bacterial strains were revived from cryopreservation and cultured in Mueller–Hinton broth (MHB) to logarithmic growth phase, then diluted to a final density of 0.5–1 × 10⁶ CFU mL^−1. Serial dilutions of the nano‐short peptides were prepared in 0.2% bovine serum albumin (BSA) using a 96‐well plate format. Equal volumes of peptide solutions and bacterial suspensions were combined and incubated at 37 °C for 20–22 h. Bacterial growth was assessed by measuring absorbance at 492 nm, with MHB alone (negative control) and untreated bacterial suspension (positive control) included for reference.

MRSA 43300 = assay type: cell-based, Methicillin-Resistant Staphylococcus aureus
Experimental: as §1

E. coli ATCC 25922 [2] = experiment: Respiratory chain dehydrogenase activity, RT reduction; assay type: cell-based, Escherichia coli; settings: 16 × 10^−6 M, E. coli ATCC 25922, 1.5 h, 37 °C; n = 3
Experimental: The inhibitory effects of nano‐short peptides on RCD activity in bacteria were evaluated using an RT reduction assay.^[ [58] ^] Logarithmic growth stage E. coli ATCC 25922 and S. aureus ATCC 29213 bacterial solutions were diluted to OD600 = 0.4 in MHB liquid medium. A mixed solution was prepared by combining RT (1 mg mL^−1), glucose (100 × 10^−3 M), and Tris‐HCl buffer (50 × 10^−3 M, pH 8.6) in equal volumes (1:1:1). In 96‐well microplates, serial dilutions of nano‐short peptides were prepared using the mixed solution, followed by addition of an equal volume of bacterial suspension. Following incubation at 37 °C for 1.5 h, the absorbance at 492 nm was measured using a microplate reader, with untreated bacterial suspensions serving as controls.

[3] = LPS binding, BODIPY-TR-cadaverine displacement; settings: BC displacement, polymyxin B 10 µg mL^−1 = 100%, n = 3
Experimental: The binding ability of nano‐short peptides to LPS and LTA was evaluated using a BODIPY‐TR‐cadaverine (BC) displacement assay.^[ [59] ^] Test solutions containing LPS or LTA (50 µg mL^−1) were pre‐incubated with BC dye (5 µg mL^−1) for 4 h in the dark. Peptide solutions at varying concentrations were then mixed with the LPS or LTA, polymyxin B (final concentration 10 µg mL^−1) was used as a positive control, and LPS or LTA mixed with dye solution was used as a negative control. The fluorescence intensity (excitation λ = 580 nm, emission λ = 620 nm) was measured. %ΔF (au) = [(F treated – F negative control)/(F positive control – F negative control)] × 100%.

E. coli ATCC 25922 [4] = experiment: Serum tolerance assay (MIC after incubation with serum); assay type: cell-based, Escherichia coli; settings: 4 h of incubation with various serum concentrations
Experimental: The serum stability of nano‐short peptides was evaluated by incubating peptide solutions with fetal bovine serum (FBS), which was at concentrations of 25%, 50%, and 100% (diluted in 0.2% BSA solution). Following 4 h of incubation, the antimicrobial activity was determined by measuring the MIC against the test strains.

E. coli ATCC 25922 [5] = experiment: Outer membrane permeability, NPN; assay type: cell-based, Escherichia coli; settings: n = 3
Experimental: (§2) The NPN fluorescent probe was used to assess the permeability of the outer membrane.^[ [29] ^] A logarithmic phase culture of E. coli ATCC 25922 bacterial solution was diluted to OD600 = 0.2 in a 5 × 10^−3 M HEPES buffer (pH = 7.4 with 5 × 10^−3 M glucose). Following the addition of NPN (final concentration: 10 × 10^−6 M), the mixture was incubated for 30 min in the dark. Subsequently, the bacterial suspension was mixed with an equal volume of nano‐short peptides solution at different concentrations. Polymyxin B (10 µg mL^−1) was used as a positive control, while an untreated bacterial dilution served as the negative control. Fluorescence intensity was measured (excitation λ = 350 nm, emission λ = 420 nm) using a microplate reader. The percentage of outer membrane permeability was calculated as: Permeability% = [(F treated – F negative control)/(F positive control – F negative control)] × 100%.

E. coli UB1005 = assay type: cell-based, Escherichia coli
Experimental: as §1

E. coli 078 = assay type: cell-based, Escherichia coli
Experimental: as §1

E. coli 25922 = assay type: cell-based, Escherichia coli
Experimental: as §1

S. aureus ATCC 29213 [6] = experiment: Cell wall permeability, NPN; assay type: cell-based, Staphylococcus aureus; settings: n = 3
Experimental: as §2, with “cell wall.^[ [64]” for “the outer membrane.^[ [29]”, “S. aureus” for “E. coli”, “29213” for “25922”, “Polymyxin B (10 µg mL^−1) was used as a positive control, while an untreated bacterial dilution served as the negative control.” left out

S. aureus 25923 = assay type: cell-based, Staphylococcus aureus
Experimental: as §1

S. aureus 29213 = assay type: cell-based, Staphylococcus aureus
Experimental: as §1

Row | SMILES | ATP levels decreased to (S. aureus ATCC 29213 [1]) [%] | MIC, S. epidermidis 12228 (S. epidermidis 12228) [µM] | MIC, MRSA 43300 (MRSA 43300) [µM] | RCD activity reduced to (E. coli ATCC 25922 [2]) [%] | LPS binding, % of polymyxin B's binding efficiency ([3]; 8 × 10^−6 M) [%] | LPS binding, % of polymyxin B's binding efficiency ([3]; 16 × 10^−6 M) [%] | antimicrobial capacity after serum incubation (E. coli ATCC 25922 [4]) | outer membrane disruption compared to polymyxin B (E. coli ATCC 25922 [5]; 8 × 10^−6 M) [%] | outer membrane disruption compared to polymyxin B (E. coli ATCC 25922 [5]; 16 × 10^−6 M) [%] | MIC, E. coli UB1005 (E. coli UB1005) [µM] | MIC, E. coli 078 (E. coli 078) [µM] | MIC, E. coli 25922 (E. coli 25922) [µM] | cell wall permeabilization, ciprofloxacin as the reference (S. aureus ATCC 29213 [6]; 8 × 10^−6 M) [%] | cell wall permeabilization, ciprofloxacin as the reference (S. aureus ATCC 29213 [6]; 16 × 10^−6 M) [%] | MIC, S. aureus 25923 (S. aureus 25923) [µM] | MIC, S. aureus 29213 (S. aureus 29213) [µM]
1 | CCCCCC(N)C(=O)NC(CCCCC)C(=O)NC(CCCCC)C(=O)NC(CCCCC)C(=O)N[C@H](CCCNC(=N)N)C(=O)N[C@@H](CCCNC(=N)N)C(=O)N[C@@H](CCCNC(=N)N)C(=O)N1CCC[C@H]1C(=O)O (some centres unmarked) [Peptide B4] (H-[ξAhp(2)][ξAhp(2)][ξAhp(2)][ξAhp(2)][dR]RRP-OH; N-terminus assumed) | 71.18 | 32 (≈ 35 µg/mL) | 16 (≈ 17.5 µg/mL) | 70.75 | 40.51 | 54.24 | retained their original antimicrobial capacity | 37.37 | 57.94 | 8 (≈ 8.74 µg/mL) | 16 (≈ 17.5 µg/mL) | 16 (≈ 17.5 µg/mL) | 19.49 | 37.80 | 32 (≈ 35 µg/mL) | 16 (≈ 17.5 µg/mL)
2 | N=C(N)NCCC[C@H](NC(=O)[C@@H](CCCNC(=N)N)NC(=O)[C@H](Cc1cccc2ccccc12)NC(=O)[C@H](Cc1cccc2ccccc12)NC(=O)[C@H](Cc1cccc2ccccc12)NC(=O)[C@@H](N)Cc1cccc2ccccc12)C(=O)N[C@@H](CCCNC(=N)N)C(=O)N1CCC[C@H]1C(=O)O (stereo in doubt) [Peptide N4] | 10.8 | 4 (≈ 5.49 µg/mL) | 4 (≈ 5.49 µg/mL) | 60.10 | 60.67 | 99.47 | retained their original antimicrobial capacity | 92.06 | 108.41 | 4 (≈ 5.49 µg/mL) | 8 (≈ 11 µg/mL) | 8 (≈ 11 µg/mL) | 48.48 | 110.54 | 4 (≈ 5.49 µg/mL) | 4 (≈ 5.49 µg/mL)
